Legend:
Format in all cases: cell-based
HepG2 = test: Cell proliferative assay (MTT), HepG2; details: Homo sapiens, 72 h incubation, read-out: IC50s HepG2
How it was run: (§1)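 IC50 values (mean±SEM, at least three independent experiments) come from dose-response curves of MTT absorbance at 590 nm. Treatment lasted 72 h, starting 24 h after seeding.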

HCT116 = test: Cell proliferative assay (MTT), HCT116; details: Homo sapiens, HCT-116, 72 h incubation, read-out: IC50s HCT116
Method: (§2) The synthesized compounds were evaluated for their cytotoxin activity against suspended tumor cells. These cells were seeded on 96-well plates and incubated for 24 h. Selected compounds were added at various doses and incubated for 72 h, MTT was then added, and the absorbance was measured at a wavelength of 590 nm. IC50 values are expressed as the mean±SEM from the dose-response curves of at least three independent experiments.

HT29 = test: Cell proliferative assay (MTT), HT29; details: Homo sapiens, HT-29, 72 h incubation, read-out: IC50s HT29
Method: as §2

SW620 = test: Cell proliferative assay (MTT), SW620; details: Homo sapiens, SW-620, 72 h incubation, read-out: IC50s SW620
Method: as §2

K562 = test: Cell proliferative assay (MTT), K562; details: Homo sapiens, 72 h incubation, read-out: IC50s K562
How it was run: as §1

tumor cells = test: Cell proliferative assay (MTT), summary over tumor cells; details: summary in words of Table 1; colon, liver, leukemia lines
Method: as §2

| Structure (SMILES) | IC50 (HepG2) [µM] | IC50 (HCT116) [µM] | IC50 (HT29) [µM] | IC50 (SW620) [µM] | IC50 (K562) [µM] | inhibitory activity against tumor cells (tumor cells) |
| --- | --- | --- | --- | --- | --- | --- |
| COc1ccc(C(=O)/C=C/c2cccs2)c2c1C=CC(C)(C)O2 [SKLBC-36, (E)-1-(5-methoxy-2,2-dimethyl-2H-chromen-8-yl)-3-(thiophen-2-yl)prop-2-en-1-one] | > 10 | > 10 | > 10 | > 10 | > 10 |  |
| COc1ccc(C(=O)/C=C/c2ccc(Br)cc2)c2c1C=CC(C)(C)O2 [SKLBC-8, (E)-3-(4-bromophenyl)-1-(5-methoxy-2,2-dimethyl-2H-chromen-8-yl)prop-2-en-1-one] | > 10 | 5.82 | > 10 | > 10 | > 10 |  |
| COc1ccc(C(=O)/C=C/c2ccc(Cl)c(Cl)c2)c2c1C=CC(C)(C)O2 [SKLBC-37, (E)-3-(3,4-dichlorophenyl)-1-(5-methoxy-2,2-dimethyl-2H-chromen-8-yl)prop-2-en-1-one] | > 10 | 9.44 | > 10 | > 10 | > 10 |  |
| COc1ccc(C(=O)/C=C/c2cccc(C(F)(F)F)c2)c2c1C=CC(C)(C)O2 [SKLBC-25, (E)-1-(5-methoxy-2,2-dimethyl-2H-chromen-8-yl)-3-(3-(trifluoromethyl)phenyl)prop-2-en-1-one] | > 10 | 9.71 | > 10 | > 10 | > 10 |  |
| COc1ccc(C(=O)/C=C/c2cccc(Cl)c2)c2c1C=CC(C)(C)O2 [SKLBC-35, (E)-3-(3-chlorophenyl)-1-(5-methoxy-2,2-dimethyl-2H-chromen-8-yl)prop-2-en-1-one] | > 10 | > 10 | > 10 | > 10 | > 10 |  |
| COc1ccc(C(=O)/C=C/c2ccc(O)cc2)c2c1C=CC(C)(C)O2 [SKLBC-22, (E)-3-(4-hydroxyphenyl)-1-(5-methoxy-2,2-dimethyl-2H-chromen-8-yl)prop-2-en-1-one] | > 10 | > 10 | > 10 | > 10 | > 10 |  |
| COc1ccc(C(=O)/C=C/c2ccco2)c2c1C=CC(C)(C)O2 [SKLBC-31, (E)-3-(furan-2-yl)-1-(5-methoxy-2,2-dimethyl-2H-chromen-8-yl)prop-2-en-1-one] | > 10 | > 10 | > 10 | > 10 | > 10 |  |
| COc1ccc(C(=O)/C=C/c2ccc(Cl)cc2)c2c1C=CC(C)(C)O2 [SKLBC-34, (E)-3-(4-chlorophenyl)-1-(5-methoxy-2,2-dimethyl-2H-chromen-8-yl)prop-2-en-1-one] | > 10 | > 10 | > 10 | > 10 | > 10 |  |
| COc1ccc(C(=O)/C=C/c2cc(Cl)ccc2O)c2c1C=CC(C)(C)O2 [SKLBC-38, (E)-3-(5-chloro-2-hydroxyphenyl)-1-(5-methoxy-2,2-dimethyl-2H-chromen-8-yl)prop-2-en-1-one] | > 10 | 5.24 | > 10 | > 10 | > 10 |  |
| COc1ccc(C(=O)/C=C/c2ccc(O)c(Br)c2)c2c1C=CC(C)(C)O2 [SKLBC-29, (E)-3-(3-bromo-4-hydroxyphenyl)-1-(5-methoxy-2,2-dimethyl-2H-chromen-8-yl)prop-2-en-1-one] | > 10 | > 10 | > 10 | > 10 | > 10 |  |
| COc1ccc(C(=O)/C=C/c2ccc(F)cc2)c2c1C=CC(C)(C)O2 [SKLBC-6, (E)-3-(4-fluorophenyl)-1-(5-methoxy-2,2-dimethyl-2H-chromen-8-yl)prop-2-en-1-one] | > 10 | > 10 | > 10 | > 10 | > 10 |  |
| COc1ccc(C(=O)/C=C/c2cccc(O)c2)c2c1C=CC(C)(C)O2 [SKLBC-23, (E)-3-(3-hydroxyphenyl)-1-(5-methoxy-2,2-dimethyl-2H-chromen-8-yl)prop-2-en-1-one] | > 10 | > 10 | > 10 | > 10 | > 10 |  |
| COc1ccc(C(=O)/C=C/c2ccccc2Cl)c2c1C=CC(C)(C)O2 [SKLBC-39, (E)-3-(2-chlorophenyl)-1-(5-methoxy-2,2-dimethyl-2H-chromen-8-yl)prop-2-en-1-one] | > 10 | > 10 | > 10 | > 10 | > 10 |  |
| COc1ccccc1/C=C/C(=O)c1ccc(OC)c2c1OC(C)(C)C=C2 [SKLBC-40, (E)-1-(5-methoxy-2,2-dimethyl-2H-chromen-8-yl)-3-(2-methoxyphenyl)prop-2-en-1-one] | > 10 | > 10 | > 10 | > 10 | > 10 |  |
| COc1ccc(C(=O)/C=C/c2ccc(OC)c(OC)c2OC)c2c1C=CC(C)(C)O2 [SKLBC-24, (E)-1-(5-methoxy-2,2-dimethyl-2H-chromen-8-yl)-3-(2,3,4-trimethoxyphenyl)prop-2-en-1-one] | > 10 | > 10 | > 10 | > 10 | > 10 |  |
| COc1ccc(C(=O)/C=C/c2ccccc2)c2c1C=CC(C)(C)O2 [SKLBC-20, (E)-1-(5-methoxy-2,2-dimethyl-2H-chromen-8-yl)-3-phenylprop-2-en-1-one] | > 10 | > 10 | > 10 | > 10 | > 10 |  |
| COc1ccc(C(=O)/C=C/c2ccc(-c3ccccc3)cc2)c2c1C=CC(C)(C)O2 [SKLBC-11, (E)-3-([1,1′-biphenyl]-4-yl)-1-(5-methoxy-2,2-dimethyl-2H-chromen-8-yl)prop-2-en-1-one] | > 10 | > 10 | > 10 | > 10 | > 10 |  |
| COc1cc(/C=C/C(=O)c2ccc(OC)c3c2OC(C)(C)C=C3)cc(OC)c1O [SKLBC-30, (E)-3-(4-hydroxy-3,5-dimethoxyphenyl)-1-(5-methoxy-2,2-dimethyl-2H-chromen-8-yl)prop-2-en-1-one] | > 10 | > 10 | > 10 | > 10 | > 10 |  |
| COc1cccc(/C=C/C(=O)c2ccc(OC)c3c2OC(C)(C)C=C3)c1 [SKLBC-2, (E)-1-(5-methoxy-2,2-dimethyl-2H-chromen-8-yl)-3-(3-methoxyphenyl)prop-2-en-1-one] | > 10 | > 10 | > 10 | > 10 | > 10 |  |
| COc1ccc(/C=C/C(=O)c2ccc(OC)c3c2OC(C)(C)C=C3)cn1 [SKLBC-21, (E)-1-(5-methoxy-2,2-dimethyl-2H-chromen-8-yl)-3-(6-methoxypyridin-3-yl)prop-2-en-1-one] | > 10 | > 10 | > 10 | > 10 | > 10 |  |
| COc1ccc(C(=O)/C=C/c2cc(OC)c(OC)c(OC)c2)c2c1C=CC(C)(C)O2 [SKLBC-3, (E)-1-(5-methoxy-2,2-dimethyl-2H-chromen-8-yl)-3-(3,4,5-trimethoxyphenyl)prop-2-en-1-one] | > 10 | 7.65 | > 10 | 9.15 | > 10 |  |
| CCOc1ccc(C(=O)/C=C/c2ccc(N(CC)CC)cc2)c2c1C=CC(C)(C)O2 [SKLBC-41, (E)-3-(4-(diethylamino)phenyl)-1-(5-ethoxy-2,2-dimethyl-2H-chromen-8-yl)prop-2-en-1-one] |  |  |  |  |  | better inhibitory activity |
| COc1cc(OC)c(OC)cc1/C=C/C(=O)c1ccc(OC)c2c1OC(C)(C)C=C2 [SKLBC-5, (E)-1-(5-methoxy-2,2-dimethyl-2H-chromen-8-yl)-3-(2,4,5-trimethoxyphenyl)prop-2-en-1-one] | > 10 | > 10 | > 10 | > 10 | > 10 |  |
| COc1ccc(C(=O)/C=C/c2ccc(C(F)(F)F)cc2)c2c1C=CC(C)(C)O2 [SKLBC-19, (E)-1-(5-methoxy-2,2-dimethyl-2H-chromen-8-yl)-3-(4-(trifluoromethyl)phenyl)prop-2-en-1-one] | > 10 | > 10 | > 10 | > 10 | > 10 |  |
| COc1ccc(C(=O)/C=C/c2ccsc2)c2c1C=CC(C)(C)O2 [SKLBC-27, (E)-1-(5-methoxy-2,2-dimethyl-2H-chromen-8-yl)-3-(thiophen-3-yl)prop-2-en-1-one] | > 10 | > 10 | > 10 | > 10 | > 10 |  |
| CCOc1cc(/C=C/C(=O)c2ccc(OC)c3c2OC(C)(C)C=C3)ccc1O [SKLBC-26, (E)-3-(3-ethoxy-4-hydroxyphenyl)-1-(5-methoxy-2,2-dimethyl-2H-chromen-8-yl)prop-2-en-1-one] | > 10 | > 10 | > 10 | > 10 | > 10 |  |
| COc1ccc(C(=O)/C=C/c2ccc(N(c3ccccc3)c3ccccc3)cc2)c2c1C=CC(C)(C)O2 [SKLBC-13, (E)-3-(4-(diphenylamino)phenyl)-1-(5-methoxy-2,2-dimethyl-2H-chromen-8-yl)prop-2-en-1-one] | > 10 | 4.53 | > 10 | > 10 | > 10 |  |
